# Values of other authors, collected in patent publication US20030236237A1, “Method of treating symptoms of hormonal variation, including hot flashes, using tachykinin receptor antagonist” (priority 2000, published 2003).
# Like-named read-outs stand apart in the source and are kept apart here.
# Key:
# hot flashes [1] = conditions: transdermal; tamoxifen-treated women
# hot flashes [2] = conditions: low dose oral; men and women; short term study
# [3] = test system: neurokinin B gene expression in the hypothalamic arcuate nucleus (ArN); conditions: ovariectomized rat treated with estrogen
# [4] = test system: neurokinin B gene expression in the hypothalamic arcuate nucleus (ArN); conditions: ovariectomized primate treated with estrogen
# hot flash = conditions: humans
compound,measurement,setting,value
Clc1cccc(Cl)c1N=C1NCCN1 [clonidine],frequency and severity of hot flashes,hot flashes [1],only a moderate effect
CC(=O)O[C@]1(C(C)=O)CC[C@H]2[C@@H]3C=C(C)C4=CC(=O)CC[C@]4(C)[C@H]3CC[C@@]21C [megestrol acetate],frequency of hot flashes,hot flashes [2],shown to reduce the frequency of hot flashes
estrogen,ArN changes (increased NKB gene expression),[3],completely prevents
same,ArN changes (increased NKB gene expression),[4],completely prevents
substance P [substance-P],clinical hot flash after systemic injection,hot flash,results in a clinical hot flash
